Test results: paper PMC8333062, “Chemical tools for epichaperome-mediated interactome dysfunctions of the central nervous system” (Nature Communications, 2021)
Where “and” joins values, the source holds several entries; their conditions need not be identical. Equal values may be shown once. Read-outs that look alike come from different tables or passages of the source.

Columns and labels:
[1] = Pharmacokinetic studies in mice (LC-MS/MS); format: in vivo, B6D2F1 mice; set-up: key to Brain level: brain drug concentration in μM, corrected for 0.8 mL/g water space; Plasma level: unit: uM; details: for Brain level / Plasma level: listed as PU-HZ151
Procedure: Blood and brain tissue were collected following euthanasia at the scheduled time points of 5, 30 min, 1, 4, and 8 h following iv dosing and of 30 min, 1, 4, and 8 h following po dosing. Brain samples were immediately flash frozen in liquid nitrogen following collection and stored at −80 °C until analysis. Blood samples were collected into an EDTA tube by heart puncture and centrifuged at 17,000×g for 5 min at 4 °C to separate the plasma and immediately frozen on dry ice and stored at −80 °C until analysis. […] This was homogenized, extracted with methylene chloride, and evaporated on a GeneVac. […] Drug concentration (μM) in the brain was then modified to account for an average water space of 0.8 mL g^−1.

[2] = test system: all the P450 enzymes; assay: Cytochrome P450 profiling, 1-aminobenzotriazole; format: in vitro ADME, human; details: for % PU-HZ151 remaining: ABT
Procedure: (§1) To identify cytochrome P450 enzymes responsible for PU-HZ151’s metabolism in human liver microsomes the following procedure was followed. Phosphate buffer (100 mM, pH 7.4) was prepared monthly and stored at 4 °C. Frozen stock solutions of human liver microsomes (Life Technologies; Cat# HMMCPL) were used once after thawing and were not refrozen. NADPH stock solution (50 mM) in distilled water was prepared fresh daily. […] The stock solutions of these P450 inhibitors were prepared in DMSO. […] The concentration of the chemical inhibitors used in the assay were furafylline (10 μM), tranylcypromine (2 μM), ketoconazole (1 μM), troleandomycin (20 μM), orphenadrine (50 μM), montelukast (3 μM), sulfaphenazole (10 μM), benzylnirvanol (1 μM), quinidine (1 μM), and 1-aminobenzotriazole (1 mM) for all the P450 enzymes. Timing of the reactions was started following the addition of NADPH/magnesium chloride mix and PU-HZ151. Time-dependent chemical inhibitors (furafylline, troleandomycin, orphenadrine, and 1-aminobenzotriazole) were preincubated with human microsomes in the presence of NADPH and magnesium chloride for 15 min before the addition of PU-HZ151 and timing of reactions was started after addition of PU-HZ151. […] Following brief vortexing and centrifugation, a 200 µL aliquot of the supernatant was transferred to a tube, and 10 µL of haloperidol (1 µg mL^−1) as internal standard was added. Following brief vortexing and centrifugation, 50 µL of supernatant was added to a 96-well plate for subsequent LC-MS/MS analysis. PU-HZ151 was similarly tested as above in the absence of CYP inhibitors for comparative purposes. All samples were assayed in duplicate. […] This was similarly performed for incubations of PU-HZ151 performed in the absence of CYP inhibitor.

[3] = test system: CYP3A; assay: Cytochrome P450 profiling, ketoconazole; format: in vitro ADME, human; details: for % PU-HZ151 remaining: Ketoconazole
Procedure: as §1

[4] = target: T1, CYP2D6 (Homo sapiens, UniProt P10635); assay: Cytochrome P450 profiling, quinidine; format: in vitro ADME; details: for % PU-HZ151 remaining: Quinidine
T1 construct: tissue Life Technologies HMMCPL; host or cells: human liver microsomes
T1 sequence (P10635 whole entry): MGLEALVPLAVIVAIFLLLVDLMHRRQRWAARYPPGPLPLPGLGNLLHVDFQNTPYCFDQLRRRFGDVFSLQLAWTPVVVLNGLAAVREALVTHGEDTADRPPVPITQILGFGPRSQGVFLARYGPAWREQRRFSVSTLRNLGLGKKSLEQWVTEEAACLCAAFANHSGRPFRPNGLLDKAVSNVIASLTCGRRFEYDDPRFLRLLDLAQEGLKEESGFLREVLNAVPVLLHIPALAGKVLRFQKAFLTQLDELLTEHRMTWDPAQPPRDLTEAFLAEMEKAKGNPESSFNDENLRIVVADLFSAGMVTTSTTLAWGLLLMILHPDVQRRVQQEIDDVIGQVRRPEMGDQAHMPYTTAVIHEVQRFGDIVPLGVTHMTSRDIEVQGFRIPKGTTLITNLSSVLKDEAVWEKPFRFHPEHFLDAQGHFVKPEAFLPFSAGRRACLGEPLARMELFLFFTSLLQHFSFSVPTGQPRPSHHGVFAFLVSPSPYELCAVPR
Procedure: as §1

[5] = target: T2, 70 key receptor, enzyme, and ion channel proteins (Homo sapiens, UniProt P17612); assay: General side effect profile (SEP) II diversity panel; format: binding; details: 1.0E-5 M
T2 construct: purchased Caliper Life Sciences (now PerkinElmer), NOVASCREEN General SEP II

[6] = target: T3, 70 key receptor, enzyme, and ion channel proteins (Homo sapiens, UniProt P20309); assay: as above; format: binding
T3 construct: purchased Caliper Life Sciences (now PerkinElmer), NOVASCREEN General SEP II
T3 sequence (P20309 whole entry): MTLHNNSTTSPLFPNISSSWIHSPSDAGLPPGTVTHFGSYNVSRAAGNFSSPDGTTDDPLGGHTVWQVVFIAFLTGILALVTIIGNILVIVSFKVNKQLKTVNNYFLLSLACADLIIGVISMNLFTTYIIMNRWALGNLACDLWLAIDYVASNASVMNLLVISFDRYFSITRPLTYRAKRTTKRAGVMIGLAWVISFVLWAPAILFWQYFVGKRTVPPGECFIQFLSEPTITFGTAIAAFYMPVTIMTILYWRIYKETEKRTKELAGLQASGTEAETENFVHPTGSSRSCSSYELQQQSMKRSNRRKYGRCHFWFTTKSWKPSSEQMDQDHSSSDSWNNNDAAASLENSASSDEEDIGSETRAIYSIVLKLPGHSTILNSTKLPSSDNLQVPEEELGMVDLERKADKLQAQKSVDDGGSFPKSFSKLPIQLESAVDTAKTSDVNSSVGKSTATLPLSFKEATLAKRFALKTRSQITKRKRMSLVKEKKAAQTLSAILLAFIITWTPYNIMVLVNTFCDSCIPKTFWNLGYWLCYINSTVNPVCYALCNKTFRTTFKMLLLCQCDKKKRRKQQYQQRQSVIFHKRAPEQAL

[7] = target: T4, 70 key receptor, enzyme, and ion channel proteins (Homo sapiens, UniProt P17252); assay: as above; format: binding; details: 1.0E-5 M
T4 construct: purchased Caliper Life Sciences (now PerkinElmer), NOVASCREEN General SEP II

[8] = test system: 70 key receptor, enzyme, and ion channel proteins; assay: as above; format: binding; details: 1.0E-5 M

CC(C)(C)CNCCn1c(Sc2cc3c(cc2I)OCO3)nc2c(N)ncnc21 [Compound 85]
Brain level ([1]; time 5 min, individual animals): 15.4588 and 7.86 and 11.67 | Brain level ([1]; time 0.5 h, individual animals): 4.224 and 4.34 and 4.57 | Brain level ([1]; time 1 h, individual animals): 2.2188 and 1.91 and 1.47 | Brain level ([1]; time 4 h, individual animals): 0.07412 and 0.06266 and 0.11 and 0.04 | Brain level ([1]; time 8 h, individual animals): 0.009121 and 0.03148 and 0.03 and 0.11 | Plasma level ([1]; time 5 min, individual animals): 9.01 and 9.336 and 14.2069 and 3.61 | Plasma level ([1]; time 0.5 h, individual animals): 1.67 and 1.018 and 1.136 and 1.35 | Plasma level ([1]; time 1 h, individual animals): 0.32 and 0.7228 and 0.6745 and 0.42 | Plasma level ([1]; time 4 h, individual animals): 0.02 and 0.03223 and 0.03275 and 0.03 | Plasma level ([1]; time 8 h, individual animals): 0.01 (2×) and 0 (2×) | brain exposure relative to PU-H71 ([1]; i.v. 10 mg kg^−1): approximately ten-fold higher | Cmax ([1]; male, B6D2F1, mouse, brain and lung, iv, single i.v. 10 mg/kg): 10 to 15 µM | Kp ([1]; male, B6D2F1, mouse, brain, 10 mg kg^−1, oral administration, read-out: brain/plasma): 1.6 | concentration at 5 min ([1]; male, B6D2F1, mouse, brain, intravenous, 10 mg kg^-1, Brain, time 5 min, individual animals, read-out: Brain level): 13.5 µM | concentration at 0.5 h ([1]; male, B6D2F1, mouse, brain, intravenous, 10 mg kg^−1, Brain, time 0.5 h, individual animals, read-out: Brain level): 4.58 µM | concentration at 1 h ([1]; male, B6D2F1, mouse, brain, intravenous, 10 mg kg^−1, Brain, time 1 h, individual animals, read-out: Brain level): 2.06 µM | Kp ([1]; male, B6D2F1, mouse, brain, iv, 10 mg kg^−1, read-out: brain to plasma ratio): 2.35 | AUC ([1]; male, B6D2F1, mouse, brain, iv, i.v. 10 mg kg^−1, read-out: brain exposure, AUC): 8.25 µM·h | AUC ([1]; male, B6D2F1, mouse, plasma, iv, i.v. 10 mg kg^−1, read-out: plasma exposure, AUC): 3.52 µM·h | bioavailability ([1]; male, B6D2F1, mouse, plasma, oral, 10 mg kg^−1): 68% | inhibition of PU-HZ151 metabolism ([2]; 1-aminobenzotriazole): 75% | % PU-HZ151 remaining ([2]; 15 min): 90.5% | % PU-HZ151 remaining ([2]; 30 min): 83.9% | % PU-HZ151 remaining ([2]; 60 min): 79.6% | % PU-HZ151 remaining ([3]; 15 min): 76.5% | % PU-HZ151 remaining ([3]; 30 min): 63.5% | % PU-HZ151 remaining ([3]; 60 min): 50.6% | inhibition of PU-HZ151 metabolism ([3]; ketoconazole): 40% | % PU-HZ151 remaining ([4]; 15 min): 62.9% | % PU-HZ151 remaining ([4]; 30 min): 43.9% | % PU-HZ151 remaining ([4]; 60 min): 26.6% | inhibition of PU-HZ151 metabolism ([4]; quinidine): 11% | Percent Inhibition: Kinase, Protein, PKA (h) [5]: 0.09% | Percent Inhibition: Muscarinic, M3 (h) [6]: 50.76% | Percent Inhibition: Kinase, Protein, PKCa (h) [7]: 11.20% | Percent Inhibition: Adenosine, Al [8]: 14.00% | Percent Inhibition: Adrenergic, Alpha 1B [8]: 27.43% | Percent Inhibition: Adrenergic, Alpha 2A (h) [8]: -1.92% | Percent Inhibition: Adrenergic, Alpha 2B [8]: 10.67% | Percent Inhibition: Adrenergic, Alpha 2C (h) [8]: 15.07% | Percent Inhibition: Adrenergic, Alpha lA [8]: 12.17% | Percent Inhibition: Angiotensin II, ATl (h) [8]: 0.36% | Percent Inhibition: Bradykinin, BK2 [8]: 10.14% | Percent Inhibition: Calcium Channel, Type N [8]: -11.15% | Percent Inhibition: Dopamine Transporter [8]: -12.87% | Percent Inhibition: Dopamine, D2s (h) [8]: 20.57% | Percent Inhibition: Dopamine, D3 [8]: -6.23% | Percent Inhibition: Esterase, Acetylcholine [8]: 6.63% | Percent Inhibition: GABA A, Agonist Site [8]: 33.91% | Percent Inhibition: GABA A, BDZ, alpha 1 site [8]: 18.61% | Percent Inhibition: GABA, Chloride, TBOB Site [8]: -28.46% | Percent Inhibition: GABA-B [8]: 18.61% | Percent Inhibition: Glutamate, AMPA Site (Ionotropic) [8]: 8.62% | Percent Inhibition: Glutamate, Kainate Site (Ionotropic) [8]: -7.63% | Percent Inhibition: Glutamate, MK-801 Site (Ionotropic) [8]: -0.50% | Percent Inhibition: Glutamate, NMDA Agonist Site (Ionotropic) [8]: 23.69% | Percent Inhibition: Glutamate, NMDA, Phencyclidine Site (Ionotropic) [8]: 6.26% | Percent Inhibition: Glutamate,NMDA,Glycine (Stry-insens Site) [8]: -0.97% | Percent Inhibition: Glycine, Strychnine-sensitive [8]: -19.46% | Percent Inhibition: Histamine, H2 [8]: 40.98% | Percent Inhibition: Histamine, H3 [8]: 22.25% | Percent Inhibition: Histamine, Hl [8]: 5.94% | Percent Inhibition: Leukotriene, LTB4 (BLT) [8]: 22.06% | Percent Inhibition: Leukotriene, LTD4 (CysLTl) [8]: 28.77% | Percent Inhibition: Neurokinin, NKl [8]: 20.40% | Percent Inhibition: Nicotinic, Neuronal (a-BnTx insensitive) [8]: -17.51% | Percent Inhibition: Nitric Oxide, NOS (Neuronal-Binding) [8]: -1.73% | Percent Inhibition: Norepinephrine Transporter [8]: 5.73% | Percent Inhibition: Phosphodiesterase, PDE4A1A (h) [8]: 14.00% | Percent Inhibition: Potassium Channel, ATP-Sensitive [8]: -1.01% | Percent Inhibition: Potassium Channel, Ca2+ Act., VI [8]: 18.66% | Percent Inhibition: Serotonin Transporter [8]: 5.96% | Percent Inhibition: Serotonin, 5HT1D [8]: 5.13% | Percent Inhibition: Serotonin, 5HT2A [8]: 8.50% | Percent Inhibition: Serotonin, 5HT2C [8]: 12.77% | Percent Inhibition: Serotonin, 5HT3 [8]: 6.61% | Percent Inhibition: Serotonin, 5HT4 [8]: 36.08% | Percent Inhibition: Sigma 2 [8]: -0.71% | Percent Inhibition: Sodium, Site 2 [8]: 14.53%
